Measured values as given in US9040903B2, “Precursor selection using an artificial intelligence algorithm increases proteomic sample coverage and reproducibility” (Wisconsin Alumni Research Foundation, priority 2011, dated 2015).

Assays:
[1] = tested on: mouse skeletal muscle myotubes; assay: Immunoblot of mitochondrial proteins after iron chelation of myotubes; type: cell-based
[2] = tested on: human embryonic stem cells (ESCs); assay: TMT 6-plex isobaric tag quantitation of human embryonic stem cells before and two days after BMP4 treatment (inSeq-triggered QuantMode scans); type: cell-based; conditions: two days post treatment
Method: To assess this decision node, a sample comprising three biological replicates of human embryonic stem cells (ESCs) was analyzed pre- and two days-post bone morphogenetic protein 4 (BMP4) treatment (i.e., TMT 6-plex, three pre-treatment and three post BMP4 treatment cell populations). BMP4, a growth factor that induces context-dependent differentiation in pluripotent stem cells, is widely used to study differentiation to biologically relevant cell lineages such as mesoderm and endoderm. […] Here the ratio of change between control and treatment cell lines measured in one QM scan is large (5.86) but not significant (P=0.067, Student's t-test with Storey correction) (34). Note significance testing was accomplished by assessing variation within the three biological replicates of both treatment and control cell lines. The measured ratio remains relatively unchanged (5.22 and 5.43) as reporter tag signal from additional quantitation scans are added; however, the corresponding P-values decrease to 0.014 and 0.012 when two or three quantitation scans are summed. […] Ideally this log2 ratio would be zero, indicating perfect biological replication; however, when only one quantitation scan is employed this ratio severely deviates from zero with decreasing tag intensity. To improve overall data quality and to omit potentially erroneous measurements arbitrary reporter signal cutoffs (dashed vertical line in FIG. 16B) can be employed. These cutoffs eliminate many low-abundance peptides which often represent proteins of interest. Summation of additional quantitation scans increases the average reporter tag intensity, raising nearly all of the protein measurements above the intensity cutoff value (74, 9, and 4 proteins omitted using one, two, and three quantification scans, respectively).
Human embryonic stem cells (line H1) were maintained in feeder independent media as previously described (Chen et al). […]
TMT quantification was performed using TagQuant within COMPASS. […]

Molecule	cell death ([1]; mouse myotube C2C12 cells, 100 μM)	decrease in mitochondrial proteins ([1]; mouse myotube C2C12 cells, 100 μM, 24 hrs)	levels of the mitochondrial voltage dependent anion channel (VDAC) ([1]; mouse skeletal muscle myotubes, FIG. 12)	loss of proteins involved in mitochondrial oxidative phosphorylation (OXPHOS) ([1]; mouse skeletal muscle myotubes, dose-dependent and time-dependent, FIG. 12)	ratio of change between control and treatment cell lines, peptide FCADHPFLFFIR (SEQ ID NO:3) from protein SERPINB8 ([2]; one QM scan, P=0.067)	ratio of change between control and treatment cell lines, peptide FCADHPFLFFIR (SEQ ID NO:3) from protein SERPINB8 ([2]; three quantitation scans summed, P=0.012)	ratio of change between control and treatment cell lines, peptide FCADHPFLFFIR (SEQ ID NO:3) from protein SERPINB8 ([2]; two quantitation scans summed, P=0.014)
CC(=O)N(O)CCCCCNC(=O)CCC(=O)N(O)CCCCCNC(=O)CCC(=O)N(O)CCCCCN [DFO, desferrioxamine]	without causing cell death	marked decrease in mitochondrial proteins	unchanging levels	induces loss of proteins involved in mitochondrial oxidative phosphorylation (OXPHOS)			
bone morphogenetic protein 4 (protein, UniProt P12644 293-408, looked up) Bone morphogenetic protein 4: SPKHHSQRARKKNKNCRRHSLYVDFSDVGWNDWIVAPPGYQAFYCHGDCPFPLADHLNSTNHAIVQTLVNSVNSSIPKACCVPTELSAISMLYLDEYDKVVLKNYQEMVVEGCGCR					5.86	5.43	5.22
